Data set [1] can be described thus: Anxiolytic and antiaggressive properties and separation from sedation (general statements). The conditions noted are these: in vivo.
Data set [2] can be described thus: rota rod test (neurotoxicity). The class given is in vivo, mouse. The following applies: 370 mg/kg oral, mice, 30 min after administration. The method, then:
The test used was that known as the rota rod test described by BOISSIER (Therapie 1958 XIII pp. 1074-1118).
This test aims at determining the ability of mice to coordinate their movements by seeing to what extent they can remain on a roller turning at a rate of 4 revolutions per minute for two minutes. The trial was carried out thirty minutes after administration by oral route of the compound to be studied and the percentage of failures was noted.
The value of this test is twofold. Failure on the part of the animals gives a very early indication of the slightest damage to the meuromuscular functions which cannot be discerned by any other means. Secondly, this test serves as an element of comparison for drawing up index figures involving the results obtained with other tests.
(The rotarod test checks motor coordination on a turning rod.)

Data set [3] is described as follows: "Electrically-provoked combat" test (anxiolytic action). The class given is in vivo, mouse. The following applies: Mus musculus, 0.5 h, mice, 30 min before test, read-out: % of decrease in number of combats. An excerpt: Under certain conditions, a pair of mice reacts to an electric stimulus by a series of combats which are provoked by the anxiety felt by the animals as a result of the electric shock. This anxiety is expressed by a combat with the other animal which is rendered responsible. For this reason, the test described hereunder can be considered as a means of evaluating the anxiolytic action of a compound. Two mice which have been previously on a diet consisting only of water are placed together in a cage. They are then submitted to a series of electric impulses of an intensity varying between 40 and 80 volts according to the sensitivity of the animals. The test is first carried out with untreated animals as controls and then with the same animals treated 30 minutes before the test with a dose of the compound to be studied.
Note is taken on the number of combats engaged. The results are expressed in percentage of decrease in the number of combats engaged by the treated animals in comparison with the number of combats registered before treatment.

Data set [4] can be described thus: Four plates test (anxiolytic action). The class given is in vivo, mouse. The conditions noted are these: 0.5 h, mouse, 30 min after administration, read-out: % of protection against anxiety. The text has this:
This test, which is specific to the anxiolytics, was undertaken with the mouse, thirty minutes after the oral administration of the compound to be studied.
It consists in placing mice in a box with fairly high walls, of which the bottom comprises four square plates. These plates, which all have the same dimensions, are separated from each other by a central axis and are alternately electrified by the positive and negative poles of a source of electric current. There is a space of a few millimeters between adjacent plates.
The mouse placed in this apparatus explores it and thus passes over the different plates in succession. Note is taken of the number of times each animal passes over the plates during one minute. When the current is switched on, the mouse passing over the plates receives an electric shock (80 V), which provokes a gradual decrease in the exploratory movements, and finally brings the animals to a complete stop.
Anxiolytic agents enable the animals to become more or less indifferent to the electric shock.
The percentage of protection against anxiety given by compounds of the invention was calculated by comparing the number of times the control animals passed over the plates when electrified with the number of times the treated animals passed over the electrified plates.

A short description of data set [5]: Action on the pentylenetetrazole-induced seizure (anticonvulsant activity). Format: in vivo, mouse. The procedure:
The purpose of this test which is carried out on mice is to determine whether the compounds of the invention, when given preventively by oral route, are capable at certain doses of protecting some of the animals against the epileptic seizure produced by a predetermined dose of pentylenetetrazole which would be 100% fatal in the absence of the compound.
The compound to be studied was administered fifteen minutes before an injection of 125 mg/kg of pentylenetetrazole and note was taken of the number of deaths occurring during the three hours following this injection. The results were expressed in percentage of protection of the animals against death at the dose studied.

Data set [6] can be described thus: Action with respect to tremorine (cholinolytic properties). The class given is in vivo, mouse. The conditions noted are these: mice, 30 min before 100 mg/kg i.p. tremorine. The procedure: This test has been described by EVERETT (Nature, 1956, 177-238)
When injected into mice, tremorine produces peripheral cholinergic effects i.e. weeping, hypersalivation, sedation, diarrhea as well as central cholinergic effects i.e. tremors, akinesia.
Batches of 10 mice separated into individual cages, were given the compound to be studied, by oral route, 30 minutes before administration of an intraperitoneal dose of 100 mg/kg of tremorine.
Note was then taken in each batch of the percentage of animals presenting the various symptoms of tremorine-induced poisoning since at such a dose of tremorine 100% of the control animals are poisoned.
The results hereunder are expressed in percentage of mice protected against tremor at the dose of the compound of the invention which was administered: […]

For data set [7] the following is noted: cited from earlier work.
The mark [8] stands for this setting: Mus musculus, po, 3 h, read-out: % of protection against death.
Where [9] appears, read: Arch. Int. Pharmacodyn 219, 104-115 (1976).

Where two headings read alike, the source gives them in different places.

`CCCC(CCC)(CCC)NC(=O)NC(C)=O` [1-(1,1-di-n-propyl-n-butyl)-3-acetyl-urea]: in data set [1], the “anxiolytic and antiaggressive activity (in words)” value was “inactive or practically devoid of any anxiolytic or antiaggressive activity”.
Take `CCCC(CCC)(CCC)NC(=O)NC(=O)c1ccccc1` [1-(1,1-di-n-propyl-n-butyl)-3-benzoyl-urea]: in data set [1], the “anxiolytic and antiaggressive activity (in words)” value was “inactive or practically devoid of any anxiolytic or antiaggressive activity”.
For `C#CC(CC)(CC)NC(N)=O` [Compound C, 1-(1,1-Diethyl-2-propynyl)-urea], the “% of failures in rota rod test” value in data set [2] was 50%. The inhibition in vivo at 71 mg/kg in data set [3] (71 mg/kg) is 50%. Moreover, the inhibition in vivo at 105 mg/kg in data set [4] (105 mg/kg oral) worked out at 50%. Further, the responders at 70 mg/kg in data set [5] (setting [8]) was determined as 50%. The “anticonvulsant activity (in words)” value in data set [5] (pentylenetetrazole-induced seizure, mice, oral) is reported as “considerable”. For the same molecule, in data set [6] (170 mg/kg oral), the “% of protection against tremor” value came out at 0%.
For the molecule `C=CCC(CCC)(CCC)NC(N)=O` [Compound E, 1-(1,1-Di-n-propyl-3-butenyl)-urea], the inhibition in vivo at 50 mg/kg in data set [3] (50 mg/kg) is 70%. The inhibition in vivo at 100 mg/kg in data set [4] (100 mg/kg oral) was determined as 27%. Besides, the responders at 300 mg/kg in data set [5] (setting [8]) stood at 90%. Besides, in data set [6] (100 mg/kg oral), the “% of protection against tremor” value is given as 0%.
In the case of `CCCCNC(N)=O` [n-butyl-urea], the “pharmacological properties (in words)” value in data set [7] (Arch. Int. Pharmacodyn 208, 204-212 (1974)) is “properties similar to those cited hereabove with respect to tert-butyl-urea”.
`CC(C)(C)NC(N)=O` [tert-butyl-urea]: in data set [7] (setting [9]), the “pharmacological properties (in words)” value was “anticonvulsant, hypnotic and sedative properties”; the “potentiation of hypnotic effects of the barbiturates” value is “potentiator of the hypnotic effects of the barbiturates”.

The values are drawn from patent publication US4223041A, “Urea derivatives to treat anxiety and aggressivity” (Labaz, priority 1976, dated 1980).
